Patent publication US9556191B2, “Aminoquinazoline derivatives and their salts and methods of use thereof” (SUNSHINE LAKE PHARMA CO., LTD, priority 2013, dated 2017)

Key:
[1] = biological target: EGFR T790M (human epidermal growth factor receptor T790M mutation) (Homo sapiens (Human), UniProt P00533, T790M); assay: In vitro kinase inhibitory activity, EGFR T790M; assay type: biochemical
Experimental: (§1) Stop buffer was prepared from 100 mM HEPES, pH 7.5, 0.015% Brij-35, 0.2% Coating Reagent #3, and 50 mM EDTA.
(§2) Kinase reaction was performed according to the following procedures: (1) 2.5× kinase solution was prepared by adding kinase into 1× kinase base buffer; (2) 2.5× peptide solution was prepared by adding FAM-labeled peptide and ATP into 1× kinase base buffer; (3) 2.5× kinase solution (10 μL) was added to each well of the 384-well assay plate containing 5 μL of compound in 10% DMSO and then the assay plate was incubated at room temperature for 10 minutes; (4) 2.5× peptide solution (10 μL) was added to each well of the 384-well assay plate; and (5) stop buffer (25 μL) was added to stop the kinase reaction after incubation at 28° C. for a specified period of time.
(§3) Multifunctional microplate reader (BMG LABTECH, PHER Astar FS) with a 320 nm excitation wavelength was used to read and collected the data of by absorbing light at […], which was converted from the rate of 665 signal/620 signal.
(§4) Conversion data were copied, and then converted to inhibition values with the following formula: percent inhibition=(max−conversion)/(max−min)*100 where “max” stands for the DMSO control value, “conversion” stands for the sample value and “[…]” stands for the no-kinase control value. The data were fitted in XLfit to obtain IC50 values.

[2] = Rat PK (pharmacokinetics after iv and po administration); assay type: in vivo; details: male, SD, plasma; for Vd: read-out: Vss; for bioavailability: po 5 vs iv 2 (g/kg [sic]; mg/kg in method), read-out: F (bioavailability)
Source text: Materials used include Propranolol (internal standard), methyl alcohol, ammonium acetate, K2EDTA (potassium ethylenediaminetetraacetate), methane acid, acetonitrile, MTBE (methyl tert-butyl ether), Cremophor EL (polyoxyethylated castor oil), KolliphorHS 15 (polyethylene glycol 12-hydroxystearate), DMSO (dimethylsulfoxide), PEG400 (polyethylene glycol 400) and SD rat (male, 180-220 g, 7-8 weeks old, purchased from Hunan Slack King of Laboratory Animal Co., Ltd.), all of which are commercially available.
Each test compound prepared in above examples was completely dissolved in a mixture of 5% DMSO, 5% KolliphorHS 15 and 90% saline.
(1) The test sample stock solution was prepared by dissolving an accurately weighed test sample in DMSO followed by dilution to the concentration of 1 mg/mL with acetonitrile. The stock solution was stored under the condition of −20° C. for later use.
(2) Internal standard solution was prepared by diluting a certain amount of the Propranolol stock solution in the concentration of 1 mg/mL to 100 ng/mL with water.
Samples treated with liquid-liquid extraction and chromatographic separation were analyzed by triple quadrupole tandem mass spectrometer in multiple reaction monitoring (MRM) mode for quantitative analysis.
Pretreatment of plasma sample was performed according to the following procedures: (1) plasma sample (30 μL) was precisely measured, and internal standard (250 μL) was then added to the plasma sample which was then mixed by vortexing; (2) the sample was extracted once with 1 mL of MTBE and then centrifuged at 13000 rpm for 2 minutes at 4° C.; (3) supernatant (800 μL) was aspirated and dried with 96 holes nitrogen gas blowing; (4) the residue was dissolved with 150 μL of a mixture of methanol and water (v/v=1/1) and then mixed by vortexing; and (5) sampling: sample quantity was 8 μL.
Preparation of standard sample was performed according to the following procedures: (1) a pre-determined amount of the compound stock solution was precisely measured, and then was diluted to standard series of solution with acetonitrile; (2) each of the standard solution (20 μL) prepared above was precisely measured and to each was added 180 μL of blank plasma; (3) each sample was mixed by vortexing to obtain series of standard samples in which the plasma concentration was 3, 5, 10, 30, 100, 300, 1000, 3000, 5000 or 10000 ng/mL; and (4) standard curve was established.
The content of each test compound in rat plasma after administration was determined by LC/MS/MS.
Noncompartmental analysis to calculate pharmacokinetic parameters was performed with WinNonlin 6.1 software.

[3] = biological target: EGFR (human epidermal growth factor receptor) (Homo sapiens (Human), UniProt P00533); assay: In vitro kinase inhibitory activity, EGFR; assay type: biochemical
Experimental: as §1, §2, §3, §4

[4] = biological target: HER2 (human epidermal growth factor receptor 2) (Homo sapiens (Human), UniProt P04626); assay: In vitro kinase inhibitory activity, HER-2; assay type: biochemical
Experimental: as §1
as §2, with “time. […]” for “time.”
as §4

[5] = iv(2 g/kg) [sic], method says 2 mg/kg
[6] = po(5 g/kg) [sic], method says 5 mg/kg

EGFR T790M (human epidermal growth factor receptor T790M mutation), sequence (P00533 25-1210 T790M): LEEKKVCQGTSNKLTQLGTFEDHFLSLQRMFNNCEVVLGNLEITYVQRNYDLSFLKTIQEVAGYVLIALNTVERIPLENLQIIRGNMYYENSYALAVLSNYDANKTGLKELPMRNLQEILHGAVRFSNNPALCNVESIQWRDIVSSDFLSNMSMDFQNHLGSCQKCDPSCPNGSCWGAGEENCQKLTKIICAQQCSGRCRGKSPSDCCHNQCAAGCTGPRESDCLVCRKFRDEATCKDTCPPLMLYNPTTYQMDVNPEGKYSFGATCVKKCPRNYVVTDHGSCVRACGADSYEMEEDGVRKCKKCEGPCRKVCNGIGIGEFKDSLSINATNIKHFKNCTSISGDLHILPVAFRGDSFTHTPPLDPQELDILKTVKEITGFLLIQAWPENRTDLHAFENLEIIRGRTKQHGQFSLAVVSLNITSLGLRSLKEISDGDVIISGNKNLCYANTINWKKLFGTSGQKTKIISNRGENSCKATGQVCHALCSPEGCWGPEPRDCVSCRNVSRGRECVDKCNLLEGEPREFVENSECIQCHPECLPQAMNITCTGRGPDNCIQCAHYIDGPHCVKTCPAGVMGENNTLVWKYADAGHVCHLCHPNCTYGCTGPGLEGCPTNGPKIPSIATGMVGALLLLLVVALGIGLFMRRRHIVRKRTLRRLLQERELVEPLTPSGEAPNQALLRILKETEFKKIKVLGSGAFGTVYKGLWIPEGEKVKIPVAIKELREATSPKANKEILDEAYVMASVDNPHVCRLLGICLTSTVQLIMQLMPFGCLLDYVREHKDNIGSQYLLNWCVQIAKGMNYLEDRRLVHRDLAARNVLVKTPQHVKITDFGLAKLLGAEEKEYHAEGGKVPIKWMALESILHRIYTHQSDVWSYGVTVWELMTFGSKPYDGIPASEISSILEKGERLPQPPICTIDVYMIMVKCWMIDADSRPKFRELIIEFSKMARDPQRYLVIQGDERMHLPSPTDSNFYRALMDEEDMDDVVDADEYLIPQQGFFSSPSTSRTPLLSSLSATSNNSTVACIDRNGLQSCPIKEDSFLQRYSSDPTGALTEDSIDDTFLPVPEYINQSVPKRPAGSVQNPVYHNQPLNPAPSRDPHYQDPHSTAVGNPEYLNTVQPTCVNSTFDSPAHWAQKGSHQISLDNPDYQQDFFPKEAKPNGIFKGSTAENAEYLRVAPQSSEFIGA
EGFR (human epidermal growth factor receptor), sequence (P00533 25-1210): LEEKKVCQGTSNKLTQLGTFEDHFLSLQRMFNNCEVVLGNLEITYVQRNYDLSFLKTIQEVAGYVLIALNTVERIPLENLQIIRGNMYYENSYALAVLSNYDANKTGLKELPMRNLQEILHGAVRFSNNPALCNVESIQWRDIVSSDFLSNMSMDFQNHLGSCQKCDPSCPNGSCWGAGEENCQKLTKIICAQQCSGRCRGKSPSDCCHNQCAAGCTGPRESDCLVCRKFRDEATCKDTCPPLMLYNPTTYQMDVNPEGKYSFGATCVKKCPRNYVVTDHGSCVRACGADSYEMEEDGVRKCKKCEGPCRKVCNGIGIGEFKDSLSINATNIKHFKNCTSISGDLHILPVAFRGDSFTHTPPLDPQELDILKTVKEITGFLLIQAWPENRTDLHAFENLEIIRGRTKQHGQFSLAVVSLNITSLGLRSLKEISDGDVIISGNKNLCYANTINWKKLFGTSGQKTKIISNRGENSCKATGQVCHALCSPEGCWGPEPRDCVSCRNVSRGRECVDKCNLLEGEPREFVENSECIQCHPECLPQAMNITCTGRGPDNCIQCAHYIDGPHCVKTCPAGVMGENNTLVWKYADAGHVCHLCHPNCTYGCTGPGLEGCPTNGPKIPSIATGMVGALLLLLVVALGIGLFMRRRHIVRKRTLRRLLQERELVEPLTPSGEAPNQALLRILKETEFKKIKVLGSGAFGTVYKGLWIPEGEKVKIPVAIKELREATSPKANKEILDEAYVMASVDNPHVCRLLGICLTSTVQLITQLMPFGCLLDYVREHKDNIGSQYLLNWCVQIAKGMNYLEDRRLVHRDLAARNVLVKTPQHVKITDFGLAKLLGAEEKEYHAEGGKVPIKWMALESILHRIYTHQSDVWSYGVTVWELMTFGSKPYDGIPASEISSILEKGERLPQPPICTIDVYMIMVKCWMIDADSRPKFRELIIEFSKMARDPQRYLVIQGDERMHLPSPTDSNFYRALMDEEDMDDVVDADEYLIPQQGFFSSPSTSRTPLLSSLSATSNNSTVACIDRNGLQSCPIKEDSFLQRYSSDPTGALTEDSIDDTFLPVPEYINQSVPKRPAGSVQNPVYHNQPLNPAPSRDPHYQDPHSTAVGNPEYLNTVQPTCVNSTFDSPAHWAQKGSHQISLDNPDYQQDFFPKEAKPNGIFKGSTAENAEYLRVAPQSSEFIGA
HER2 (human epidermal growth factor receptor 2), sequence (P04626 23-1255): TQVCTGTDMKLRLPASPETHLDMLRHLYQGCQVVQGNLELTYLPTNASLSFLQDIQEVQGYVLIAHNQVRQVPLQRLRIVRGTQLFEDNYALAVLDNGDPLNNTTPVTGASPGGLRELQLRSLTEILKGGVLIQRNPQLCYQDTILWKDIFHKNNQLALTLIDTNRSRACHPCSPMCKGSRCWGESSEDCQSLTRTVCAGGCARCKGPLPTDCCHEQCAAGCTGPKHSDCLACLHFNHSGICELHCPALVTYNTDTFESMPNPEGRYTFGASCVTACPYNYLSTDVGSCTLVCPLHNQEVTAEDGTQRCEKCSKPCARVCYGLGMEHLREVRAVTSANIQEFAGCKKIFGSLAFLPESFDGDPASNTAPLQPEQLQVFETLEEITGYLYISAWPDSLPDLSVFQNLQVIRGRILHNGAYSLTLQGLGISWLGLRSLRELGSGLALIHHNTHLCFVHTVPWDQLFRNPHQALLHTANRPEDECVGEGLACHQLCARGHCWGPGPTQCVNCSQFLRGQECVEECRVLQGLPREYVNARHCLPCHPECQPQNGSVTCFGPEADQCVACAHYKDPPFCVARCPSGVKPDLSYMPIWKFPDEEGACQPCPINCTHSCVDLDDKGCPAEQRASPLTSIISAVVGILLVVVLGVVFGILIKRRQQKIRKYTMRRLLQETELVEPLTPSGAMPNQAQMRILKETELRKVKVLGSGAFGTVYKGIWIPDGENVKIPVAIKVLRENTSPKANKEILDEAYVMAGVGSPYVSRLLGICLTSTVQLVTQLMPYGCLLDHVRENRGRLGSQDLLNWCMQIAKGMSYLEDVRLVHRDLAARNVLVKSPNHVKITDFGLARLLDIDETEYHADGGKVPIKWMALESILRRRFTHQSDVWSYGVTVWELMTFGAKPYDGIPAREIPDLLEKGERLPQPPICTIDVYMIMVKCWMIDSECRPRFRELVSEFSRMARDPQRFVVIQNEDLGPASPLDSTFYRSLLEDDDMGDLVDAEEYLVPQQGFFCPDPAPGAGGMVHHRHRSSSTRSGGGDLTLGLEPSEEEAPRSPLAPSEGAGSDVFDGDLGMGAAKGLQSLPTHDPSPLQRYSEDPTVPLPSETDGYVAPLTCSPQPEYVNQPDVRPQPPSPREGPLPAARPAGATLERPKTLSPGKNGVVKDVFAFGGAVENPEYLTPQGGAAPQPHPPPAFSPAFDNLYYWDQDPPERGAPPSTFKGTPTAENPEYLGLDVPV

Row | Compound | IC50 [1] [nM] | AUC(0-t) [2, 5] [ng·h/mL] | Cmax [2, 5] [ng/mL] | half-life [2, 5] [h] | Vd [2, 5] [L/kg] | bioavailability [2] [%] | AUC(0-t) [2, 6] [ng·h/mL] | Cmax [2, 6] [ng/mL] | half-life [2, 6] [h] | IC50 [3] [nM] | IC50 [4] [nM]
1 | CCOc1cc2ncnc(Nc3ccc(OCc4ccccn4)c(Cl)c3)c2cc1NC(=O)/C=C/CN1C[C@@H]2OCCO[C@@H]2C1 [Example 24, (E)-N-(4-((3-Chloro-4-(pyridin-2-ylmethoxy)phenyl)amino)-7-ethoxyquinazolin-6-yl)-4-((4aR,7aS)-tetrahydro-2H-[1,4]dioxino[2,3-c]pyrrol-6(3H)-yl)but-2-enamide] | 4.2 | 10500 | 2930 | 3.59 | 0.79 | 87.1 | 22900 | 2770 | 3.49 | 18.4 | 1.7
2 | O=C(/C=C/CN1C[C@@H]2OCCO[C@@H]2C1)Nc1cc2c(Nc3ccc(OCc4ccccn4)c(Cl)c3)ncnc2cc1O[C@H]1CCOC1 [Example 25, (E)-N-(4-((3-Chloro-4-(pyridin-2-ylmethoxy)phenyl)amino)-7-(((S)-tetrahydrofuran-3-yl)oxy)quinazolin-6-yl)-4-((4aR,7aS)-tetrahydro-2H-[1,4]dioxino[2,3-c]pyrrol-6(3H)-yl)but-2-enamide] | 5.9 | 4530 | 4110 | 1.42 | 0.65 | 5.94 | 474 | 73 | 4.42 | 8.6 | 2.5
3 | COc1cc2ncnc(Nc3ccc4c(cnn4Cc4cccc(F)c4)c3)c2cc1NC(=O)/C=C/CN1C[C@@H]2OCCO[C@@H]2C1 [Example 27, (E)-N-(4-((1-(3-Fluorobenzyl)-1H-indazol-5-yl)amino)-7-methoxyquinazolin-6-yl)-4-((4aR,7aS)-tetra hydro-2H-[1,4]dioxin[2,3-c]pyrrol-6(3H)-yl)but-2-enamide] | 22.9 | 1190 | 923 | 1.97 | 3.65 | 10.8 | 303 | 67.8 | 2.33 | 7.9 | 2.2
4 | CCOc1cc2ncnc(Nc3ccc4c(cnn4Cc4cccc(F)c4)c3)c2cc1NC(=O)/C=C/CN1C[C@@H]2OCCO[C@@H]2C1 [Example 28, (E)-N-(7-Ethoxy-4-((1-(3-fluorobenzyl)-1H-indazol-5-yl)amino)quinazolin-6-yl)-4-((4aR,7aS)-tetrahydro-2H-[1,4]dioxino[2,3-c]pyrrol-6(3H)-yl)but-2-enamide] | 14.5 | 692 | 450 | 1.99 | 6.66 | 41.5 | 721 | 147 | 1.41 | 40.1 | 1.6
5 | COc1cc2ncnc(Nc3ccc(Cl)c(Cl)c3F)c2cc1NC(=O)/C=C/CN1C[C@@H]2OCCO[C@@H]2C1 [Example 31, (E)-N-(4-((3,4-Dichloro-2-fluorophenyl)amino)-7-methoxyquinazolin-6-yl)-4-((4aR,7aS)-tetrahydro-2H-[1,4]dioxino[2,3-c]pyrrol-6(3H)-yl)but-2-enamide] | 6.4 | 2990 | 1210 | 3.66 | 2.58 | 93.5 | 6980 | 794 | 3.16 | 2.1 | 9.1
6 | CCOc1cc2ncnc(Nc3ccc(Cl)c(Cl)c3F)c2cc1NC(=O)/C=C/CN1C[C@@H]2OCCO[C@@H]2C1 [Example 32, (E)-N-(4-((3,4-Dichloro-2-fluorophenyl)amino)-7-ethoxyquinazolin-6-yl)-4-((4aR,7aS)-tetrahydro-2H-[1,4]dioxino[2,3-c]pyrrol-6(3H)-yl)but-2-enamide] | 4 | 2170 | 1000 | 2.95 | 2.97 | 108 | 6220 | 748 | 2.97 | 1.2 | 7
7 | O=C(/C=C/CN1C[C@@H]2OCCO[C@@H]2C1)Nc1cc2c(Nc3ccc(Cl)c(Cl)c3F)ncnc2cc1O[C@H]1CCOC1 [Example 34, (E)-N-(4-((3,4-Dichloro-2-fluorophenyl)amino)-7-(((S)-tetrahydrofuran-3-yl)oxy)quinazolin-6-yl)-4-((4aR,7aS)-tetrahydro-2H-[1,4]dioxino[2,3-c]pyrrol-6(3H)-yl)but-2-enamide] | 7 | 951 | 645 | 1.15 | 3.18 | 68.7 | 1550 | 378 | 1.4 | 3.3 | 20.3
